From ChEMBL document CHEMBL1157937, “Discovery of novel leukotriene A4 hydrolase inhibitors based on piperidine and piperazine scaffolds” (Bioorg Med Chem Lett, 2010)

Legend:
[1] = target: T1, Leukotriene A-4 hydrolase (Homo sapiens, UniProt P09960)
T1 sequence (P09960 whole entry): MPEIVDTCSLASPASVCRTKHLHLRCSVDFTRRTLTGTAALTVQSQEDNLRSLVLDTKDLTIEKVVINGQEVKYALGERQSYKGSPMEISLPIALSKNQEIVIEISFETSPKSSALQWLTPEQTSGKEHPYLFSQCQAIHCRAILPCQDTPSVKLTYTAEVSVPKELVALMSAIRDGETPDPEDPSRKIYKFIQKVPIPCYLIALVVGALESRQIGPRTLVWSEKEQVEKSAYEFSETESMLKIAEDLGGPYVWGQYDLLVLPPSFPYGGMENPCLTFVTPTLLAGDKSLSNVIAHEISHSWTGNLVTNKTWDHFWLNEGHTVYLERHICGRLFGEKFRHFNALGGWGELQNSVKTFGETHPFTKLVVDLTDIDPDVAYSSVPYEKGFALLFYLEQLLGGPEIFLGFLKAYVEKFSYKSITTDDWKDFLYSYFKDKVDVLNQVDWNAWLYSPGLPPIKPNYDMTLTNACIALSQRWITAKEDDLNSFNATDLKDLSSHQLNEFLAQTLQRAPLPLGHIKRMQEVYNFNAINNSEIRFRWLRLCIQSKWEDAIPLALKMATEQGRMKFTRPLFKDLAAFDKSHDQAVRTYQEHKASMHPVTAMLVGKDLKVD
Description: Inhibition of human recombinant LTA4H hydrolysis assessed as inhibition of LTB4 formation by LC-MS/MS

[2] = target: T1, Leukotriene A-4 hydrolase; remark: listed apart in the source
Description: Inhibition of human LTA4H hydrolysis assessed as inhibition of Ca2+ ionophore-stimulated LTB4 formation in human whole blood by ELISA

SMILES | IC50 [1] [nM] | IC50 [2] [nM]
c1cc(-c2ccc(Cc3ccc(OC[C@@H]4CCCCN4)cc3)cc2)cs1 | 60 | 
c1ccc(-c2ccc(Oc3ccc(OC[C@H]4CCCCN4)cc3)cc2)cc1 | 96 | 29
c1ccc(-c2ccc(Oc3ccc(OC[C@@H]4CCCCN4)cc3)cc2)cc1 | 114 | 43
Fc1ccc(Oc2ccc(OC[C@@H]3CCCCN3)cc2)cc1 | 174 | 90
Clc1ccc(Cc2ccc(OC[C@H]3CCCCN3)cc2)cc1 | 315 | 
Clc1ccc(Cc2ccc(OC[C@@H]3CCCCN3)cc2)cc1 | 438 | 
O=C(O)CN1CCCC[C@H]1COc1ccc(Oc2ccc(Cl)cc2)cc1 | 880 | 
O=C(O)CCCN1CCCC[C@@H]1COc1ccc(Oc2ccc(Cl)cc2)cc1 | 53 | 6
Clc1ccc(Oc2ccc(OC[C@@H]3CCCCN3Cc3ncon3)cc2)cc1 | 6900 | 
O=C(O)CCN1CCCC[C@H]1COc1ccc(Oc2ccc(Cl)cc2)cc1 | 212 | 
O=C(O)CCCN1CCCC[C@H]1COc1ccc(Oc2ccc(Cl)cc2)cc1 | 106 | 23
c1ccc(Cc2ccc(OCC3CN(Cc4ccccc4)CCN3)cc2)cc1 (configuration not stated) | 660 | 
c1ccc(Cc2ccc(OCC3CNCCN3)cc2)cc1 (configuration not stated) | 342 | 
Clc1ccc(Oc2ccc(OC[C@@H]3CCCCN3)cc2)cc1 | 110 | 40
c1ccc(Cc2ccc(OC[C@H]3CCCCN3)cc2)cc1 | 94 | 60
c1ccc(Oc2ccc(OC[C@H]3CCCCN3)cc2)cc1 | 48 | 126
c1ccc(Oc2ccc(OC[C@@H]3CCCCN3)cc2)cc1 | 44 | 286
FC(F)(F)c1ccc(Oc2ccc(OC[C@H]3CCCCN3)cc2)cc1 | 93 | 173
c1ccc(Oc2ccc(OCC3CCCCN3)cc2)cc1 (racemic) | 70 | 207
c1ccc(Cc2ccc(OCC3CCCCN3)cc2)cc1 (racemic) | 134 | 105
